Data from patent US10961492B2, “Microfluidic devices and related methods for generation and/or culture and/or maturation of three-dimensional cells and/or tissue constructs” (POLITECNICO DI MILANO, priority 2015, dated 2021).

Tested on: mature cardiac construct
Test: drug screening on mature cardiac construct in the microfluidic device (spontaneous contraction frequency)
Type: cell-based, neonatal rats
Conditions: increasing concentrations 1 and 2 μg/ml in culture medium injected in sequence; evaluated 60 seconds after injection; 37° C.; with respect to control construct without drug
Method: The cells of interest were isolated using the following process. The cardiac tissue removed from the ventricles of neonatal rats was digested in trypsin (0.6 mg/ml, in a Hank balanced saline solution, HBSS) for 18 hours. The digestion was then blocked by adding 10 ml of culture medium (Dulbecco Modified Eagle's Medium, DMEM) containing: 10% of fetal bovine serum, 1% of penicillin-streptomycin, 1% of HEPES and 1% of L-Glutamine. The isolation of the cells from the matrix was then obtained with five passages in a solution of collagenase (1 mg/ml in HBSS) at 37° C. for 5 minutes. The cell suspension thus obtained was centrifuged at 700 rpm for 10 minutes, re-suspended in 25 ml of culture medium and seeded in a culture flask to isolate the fraction of cardiomyocytes (non-adherent).
For seeding inside the device, the cardiac cells thus isolated were diluted in a solution of fibrin gel at a cell concentration of 1×10^5 cells/μl. More specifically, for the seeding of 6 devices, 20 μl of fibrin gel were prepared by mixing 20×10^5 cells (estimated volume of 8.2 μl), 4 μl of calcium chloride, 4 μl of fibrinogen (20 mg/ml in sodium chloride), 2.8 μl of aprotinin (16 TIU/ml in distilled water) and 1 μl of thrombin (5 U/ml in calcium chloride). […]

Structure (SMILES): CCN(CC)CC(=O)Nc1c(C)cccc1C [lidocaine]
- spontaneous contraction frequency: decrease in the contraction frequency
